Results: patent US9128046B2, “Slide holder assembly for comet assay” (Cellomics, Inc., priority 2011, dated 2015)

Columns and labels:
[1] = tested on: CHO-K1 cells; assay: comet assay on CHO-K1 cells in slide holder assembly; assay type: cell-based; conditions: CHO-K1 cells treated with 100 μM for one hour; imaged with ToxInsight IVT platform
Description: Exemplary comet assays were performed using the above devices and methods. For example, in one comet assay, comets were successfully generated and analyzed using CHO-K1 cells on a 96-well glass slide. To ensure that comets would be produced, half of the CHO-K1 cells were treated with 100 μM 9-aminoacridine for one hour. A 96-well glass slide was secured within a slide holder assembly and half of the slide was layered with the treated CHO-K1 cells while the other half was layered with untreated CHO-K1 cells. The cells were allowed to soak in a lysis solution and then an electrophoresis buffer while in the slide holder assembly. The cells were then electrophoresed while in the slide holder assembly and then imaged using the ToxInsight IVT platform.
In FIG. 11, the untreated CHO-K1 cells 342 are shown in columns 1-6 (i.e., the left half of the image) and the treated CHO-K1 cells 344 are shown in columns 7-12 (i.e., on the right half). […] In the sample comet assay, the ToxInsight® IVT Platform was used as the cell imaging system to scan 25 fields/well. Using the Comet.V4 BioApplication software developed by Cellomics Inc., 14,075 comets were automatically selected by the cell imaging system within a time period of 20 minutes, 29 seconds. […] This translates to over one million comets that could be analyzed per 24-hour day.

[2] = tested on: CHO-K1 cells; assay: comet assay of DNA repair over varied durations of time; assay type: cell-based; conditions: treated CHO-K1 cells layered onto wells for varied durations of time; FIG. 12
Description: In another sample comet assay, CHO-K1 cells were treated with 9-aminoacridine and the treated cells were layered onto select wells on the glass slide for varied durations of time. The cells were allowed to soak in a lysis solution and then an electrophoresis buffer while in the slide holder assembly. The cells were then electrophoresed while in the slide holder assembly and then imaged using the ToxInsight IVT Platform.

DNA repair quantified in comets [2]: time-dependent response of DNA repair
SMILES: Nc1c2ccccc2nc2ccccc12 [9-aminoacridine]
comet formation (DNA damage) [1]: comets were formed and imaged on the treated cells
